Data set [1] can be described thus: Hygroscopicity study (dynamic vapor sorption). The conditions noted are these: 25° C., 0%-90%-0% RH. The format is physicochemical. The protocol: Example 7: Hygroscopicity Study of Crystalline Form B of Compound of Formula (I)
Instrument model: SMS DVS Advantage
Test conditions: the sample (10-20 mg, the crystalline form B prepared in Example 3) was placed in DVS sample tray for testing.
Balancing: dm/dt=0.01%/min (shortest: 10 min, longest: 180 min)
Drying: drying at 0% RH for 120 min
RH (%) test gradient: 10%

Data set [2] can be described thus: Solid stability testing of crystalline form B (HPLC). The data set is classed as physicochemical. The protocol: Example 6: Stability Study of Solid Crystalline Form B of the Compound of Formula (I) High Performance Liquid Chromatography (HPLC)
The chromatographic conditions of the HPLC method are seen in table below: Chromatographic column: Zorbax SB C-18, 4.6 mm×150 mm, 5 μm (PDS-HPLC-007)
Mobile phase A: 0.1% TFA in water
Preparation of sample: the sample was dissolved in a mixed solvent of acetonitrile and water (acetonitrile:water=50:50 (v/v))
The stability of the compound in the following conditions was examined, and samples were taken at different time points to detect the content. About 5 mg of the crystalline form B of the compound of formula (I) was accurately weighted in duplicate, transferred to a dry and clean glass bottle, spread into a thin layer as test samples, and placed in experimental conditions of influential factors ((60° C.), (relative humidity 92.5%), illumination (total illumination of 1.2×106 Lux·hr/near UV energy of 200 w·hr/m2), (40° C., relative humidity 75%), or (60° C., relative humidity 75%)). The samples were covered with aluminum foils having holes, and thus completely exposed to the conditions. Sampling analysis was performed at 5 days, 10 days, 1 month, 2 months and 3 months. The samples were completely exposed to illumination (visible light of 1200000 Lux, UV of 200 W) at room temperature.

Data set [3] deals with cigarette smoke-induced rat acute lung injury model. In words: Pharmacodynamic study in cigarette smoke-induced rat acute lung injury model. The format is in vivo, Sprague-Dawley rats. The conditions noted are these: atomization 0.05 and 0.15 mg/ml, 30 min daily. The protocol:
Experimental Example 5: Pharmacodynamic Study in Cigarette Smoke-Induced Rat Acute Lung Injury Model
Male Sprague-Dawley rats (supplied by Shanghai SLAC Laboratory Animal Co., Ltd.), SPF grade, approximately 200 g.
1. Animals were randomly divided into 6 groups according to body weight after arrival and a one-week acclimation;
2. On days 1-3 of the experiment, the corresponding compound of each group was atomized for 30 min. The animals in the model group and the treatment groups were exposed to cigarette smoke for 1 h, and after a 4-h interval, the animals were exposed to cigarette smoke again for 1 h. Cigarette smoke was given twice daily for 3 consecutive days. The control group animals were exposed to room air;
3. On day 4 of the experiment, the corresponding compound of each group was atomized for 30 min, and then the animals in the model group and the treatment groups were given the atomized 150 ng/mL LPS for 15 min by inhalation. After 3 h (from the time starting atomization), the animals were exposed to cigarette smoke for 1 h, and then the lung function (Penh and F) of the animals was examined; bronchoalveolar lavage fluid was collected for cell counting after the animals were euthanized with CO2. […]

Data set [4] can be described thus: Pharmacokinetic study in beagle dogs. The data set is classed as in vivo. The protocol:
Experimental Example 3: Pharmacokinetic Study in Beagle Dogs
In this study, male beagle dogs were selected as test animals, and LC-MS/MS was used for quantitatively measuring the drug concentration in plasma of beagle dogs at different time points after intravenous injection or intragastric administration of the compound of formula (I) so as to evaluate the pharmacokinetics of the compound of formula (I) in beagle dogs.
The clear solution of the compound of formula (I) was injected into two beagle dogs of 10-12 kg via the cephalic vein or saphenous vein, and the clear solution of the compound of formula (I) was administered intragastrically to two beagle dogs of 10-12 kg (fasted overnight). The animals were all subjected to a blood collection of approximately 500 μL each time from peripheral veins at 0.0333, 0.0833, 0.25, 0.5, 1, 2, 4, 6, 8 and 24 h post-dose, and the blood was transferred into commercial centrifuge tubes containing 0.85-1.15 mg of K2 EDTA.2H2O anticoagulant, and plasma was separated by centrifugation at 3000 g for 10 min at 4° C. The plasma concentration was measured by LC-MS/MS, and the relevant pharmacokinetic parameters were calculated using pharmacokinetic software WinNonlin™ Version 6.3 (Pharsight, Mountain View, Calif.) using non-compartmental model linear-log trapezoidal method.

The conditions of data set [5]: in vivo; cited from earlier work.
For a further data set, the system named is PDE4. As to conditions: cited from earlier work.
For data set [6] the following is noted: cited from earlier work.
[7] abbreviates: intragastric administration 3 mg/kg.
The mark [8] stands for this setting: intravenous injection 0.5 mg/kg.

Molecules are shown by their SMILES.

Turning to `CCOc1cc2c(cc1OC)-c1c/c(=N\c3c(C)cc(C)cc3C)n(CCNC(=O)c3c(O)nnn3C)c(=O)n1CC2`, in data set [1], the “Hygroscopicity (DVS, in words)” value was “low hygroscopicity”. Moreover, the Total impurities % in data set [2] (40° C.-75% RH-1 month) was determined as 0.10%; in data set [2] (40° C.-75% RH-2 months), 0.08%; in data set [2] (40° C.-75% RH-3 months), 0.09%; in data set [2] (40° C.-75% RH-10 days) it was 0.10%; in data set [2] (60° C.-75% RH-1 month), 0.10%; in data set [2] (60° C.-75% RH-10 days), 0.10%. Moreover, the Total impurities % came to 0.10% in data set [2] (60° C.-5 days); 0.11% in data set [2] (60° C.-10 days); 0.11% in data set [2] (92.5% RH-5 days); 0.10% in data set [2] (92.5% RH-10 days); 0.11% in data set [2] (Day 0); 0.10% in data set [2] (Illumination (1.2×106 Lux·hr, near UV 200 w·hr/m2)). The Total impurities % in data set [2] (In the dark) is 0.11%. In addition, the “Solid stability (in words)” value in data set [2] (high temperature, high humidity or illumination) is on record as “good stability”.

As a reminder, the bioavailability is the share of a dose that reaches the circulation, judged against a reference dose that is usually intravenous. A low value points to little systemic uptake. For the molecule `CCOc1cc2c(cc1OC)-c1c/c(=N\c3c(C)cc(C)cc3C)n(CCNC(=O)c3c(O)nnn3C)c(=O)n1CC2` [Compound of formula (I)], in data set [3], the “Airway resistance index Penh (Mch challenge)” value is on record as “reduce” and the “Total number of white blood cells in BALF” value is recorded as “reduce”. In data set [4] (setting [7]), the “Area under plasma concentration-time curve (0-inf)” value worked out at 0.123 µM·h, the Peak concentration was 59.4 nM and the Time to peak turned out to be 0.6 h. Besides, in data set [4] (setting [8]), the “Area under plasma concentration-time curve (0-inf)” value was 0.21 µM·h, the Half-life came to 18 min and the Plasma clearance is reported as 70.3 mL/min/kg. Also, the bioavailability in data set [4] (male, dog, plasma, po, intragastric administration 3 mg/kg) came to 7.5%.

Regarding `COc1cc2c(cc1OC)-c1c/c(=N\c3c(C)cc(C)cc3C)n(CCNC(N)=O)c(=O)n1CC2` [RPL554], the “Plasma clearance (in words)” value in data set [5] is recorded as “high plasma clearance”. In addition, the “PDE4 inhibitory activity (in words)” value with PDE4 is recorded as “unsatisfactory”. For the same molecule, the “Solubility (in words)” value in data set [6] is on record as “poor solubility”.

For the molecule `COc1cc2c(cc1OC)-c1cc(Oc3c(C(C)C)cccc3C(C)C)nc(=O)n1CC2` [RPL565], the “Plasma clearance (in words)” value in data set [5] is given as “high plasma clearance”. Besides, in the data set with PDE4, the “PDE4 inhibitory activity (in words)” value is reported as “unsatisfactory”. For the same molecule, the “Solubility (in words)” value in data set [6] was “poor solubility”.

(Values after patent publication US20230115817A1, “CRYSTAL OF PDE3/PDE4 DUAL INHIBITOR AND USE THEREOF” (Chia Tai Tianqing Pharmaceutical Group Co., Ltd., priority 2020, published 2023).)
